From PubChem BioAssay (NCI)
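In this assay, cells in 96-well plates receive the compound at five concentrations for 48 hours. Endpoints are linearly interpolated between the surrounding concentrations. Definition used: TGI = concentration required for complete inhibition of growth.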

Legend:
Experiment in all cases: NCI tumour cell line growth inhibition, 48 h
OVCAR-8 ovarian = system: OVCAR-8 ovarian
EKVX NSCLC = system: EKVX NSCLC
T-47D breast = system: T-47D breast
K-562 leukemia = system: K-562 leukemia
SK-MEL-28 melanoma = system: SK-MEL-28 melanoma
SR leukemia = system: SR leukemia
SW-620 colon = system: SW-620 colon
LOX IMVI melanoma = system: LOX IMVI melanoma
NCI/ADR-RES ovarian = system: NCI/ADR-RES ovarian
PC-3 prostate = system: PC-3 prostate
KM12 colon = system: KM12 colon
MDA-MB-231 breast = system: MDA-MB-231 breast
UACC-62 melanoma = system: UACC-62 melanoma
SNB-75 CNS = system: SNB-75 CNS
786-0 renal = system: 786-0 renal
BT-549 breast = system: BT-549 breast
COLO 205 colon = system: COLO 205 colon
ACHN renal = system: ACHN renal
HS 578T breast = system: HS 578T breast
SF-295 CNS = system: SF-295 CNS
CCRF-CEM leukemia = system: CCRF-CEM leukemia
MCF7 breast = system: MCF7 breast
TK-10 renal = system: TK-10 renal
SK-OV-3 ovarian = system: SK-OV-3 ovarian
HOP-62 NSCLC = system: HOP-62 NSCLC
SF-539 CNS = system: SF-539 CNS
RXF 393 renal = system: RXF 393 renal
UO-31 renal = system: UO-31 renal
SF-268 CNS = system: SF-268 CNS
HT29 colon = system: HT29 colon
HOP-92 NSCLC = system: HOP-92 NSCLC
SNB-19 CNS = system: SNB-19 CNS
SK-MEL-5 melanoma = system: SK-MEL-5 melanoma
A498 renal = system: A498 renal
HCT-116 colon = system: HCT-116 colon
CAKI-1 renal = system: CAKI-1 renal
UACC-257 melanoma = system: UACC-257 melanoma
HL-60(TB) leukemia = system: HL-60(TB) leukemia
IGROV1 ovarian = system: IGROV1 ovarian
MDA-MB-435 = system: MDA-MB-435
DU-145 prostate = system: DU-145 prostate
NCI-H23 lung = system: NCI-H23 lung
HCC-2998 colon = system: HCC-2998 colon
NCI-H460 lung = system: NCI-H460 lung
HCT-15 colon = system: HCT-15 colon
MOLT-4 leukemia = system: MOLT-4 leukemia
U251 CNS = system: U251 CNS
SK-MEL-2 melanoma = system: SK-MEL-2 melanoma
OVCAR-4 ovarian = system: OVCAR-4 ovarian
M14 melanoma = system: M14 melanoma
RPMI-8226 leukemia = system: RPMI-8226 leukemia
NCI-H226 lung = system: NCI-H226 lung

Measured: TGI

O=C(Nc1ccc(Cl)cc1)c1cc2c(cc1Cl)SC(NNCCO)=NS2(=O)=O
> 100 µM: all assays above
